Test in all cases: biochemical
One experiment deals with D(3) dopamine receptor (Homo sapiens, UniProt P35462).
A further experiment concerns the target T1, D(4) dopamine receptor (Homo sapiens, UniProt P21917).
T1 sequence (P21917 whole entry): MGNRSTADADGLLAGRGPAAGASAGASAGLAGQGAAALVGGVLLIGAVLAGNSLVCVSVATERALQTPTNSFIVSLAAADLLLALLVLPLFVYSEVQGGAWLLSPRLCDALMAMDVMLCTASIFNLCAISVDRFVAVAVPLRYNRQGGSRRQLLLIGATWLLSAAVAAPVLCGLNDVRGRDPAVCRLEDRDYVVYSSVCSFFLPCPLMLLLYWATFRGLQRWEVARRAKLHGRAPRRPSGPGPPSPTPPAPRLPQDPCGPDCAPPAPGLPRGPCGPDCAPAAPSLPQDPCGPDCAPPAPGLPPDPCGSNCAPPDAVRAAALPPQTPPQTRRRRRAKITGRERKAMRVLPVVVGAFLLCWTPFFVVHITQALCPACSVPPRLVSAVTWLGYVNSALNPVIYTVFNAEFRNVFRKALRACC

In a further experiment the target is D(2) dopamine receptor (Homo sapiens, UniProt P14416).

Results on 15 compounds are retold here after ChEMBL document CHEMBL1132043, “4-N-linked-heterocyclic piperidine derivatives with high affinity and selectivity for human dopamine D4 receptors” (Bioorg Med Chem Lett, 1999).

SMILES strings stand for the structures.

For orientation: Ki means the equilibrium dissociation constant of an inhibitor or competing ligand from its target. Higher therefore signals a looser hold on the target.

Sequence of D(2) dopamine receptor (P14416 whole entry): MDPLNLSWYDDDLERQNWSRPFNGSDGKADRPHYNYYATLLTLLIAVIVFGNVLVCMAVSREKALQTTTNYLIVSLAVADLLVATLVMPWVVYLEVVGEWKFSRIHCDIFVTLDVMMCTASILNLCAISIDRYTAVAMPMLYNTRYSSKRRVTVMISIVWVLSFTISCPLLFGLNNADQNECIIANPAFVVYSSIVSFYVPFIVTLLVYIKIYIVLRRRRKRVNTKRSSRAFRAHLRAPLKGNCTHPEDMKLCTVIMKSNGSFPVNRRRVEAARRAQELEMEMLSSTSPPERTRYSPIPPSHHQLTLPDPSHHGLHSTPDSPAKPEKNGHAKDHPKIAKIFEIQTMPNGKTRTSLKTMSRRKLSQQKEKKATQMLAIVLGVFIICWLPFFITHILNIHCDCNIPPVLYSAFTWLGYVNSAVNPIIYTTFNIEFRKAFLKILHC
Sequence of D(3) dopamine receptor (P35462 whole entry): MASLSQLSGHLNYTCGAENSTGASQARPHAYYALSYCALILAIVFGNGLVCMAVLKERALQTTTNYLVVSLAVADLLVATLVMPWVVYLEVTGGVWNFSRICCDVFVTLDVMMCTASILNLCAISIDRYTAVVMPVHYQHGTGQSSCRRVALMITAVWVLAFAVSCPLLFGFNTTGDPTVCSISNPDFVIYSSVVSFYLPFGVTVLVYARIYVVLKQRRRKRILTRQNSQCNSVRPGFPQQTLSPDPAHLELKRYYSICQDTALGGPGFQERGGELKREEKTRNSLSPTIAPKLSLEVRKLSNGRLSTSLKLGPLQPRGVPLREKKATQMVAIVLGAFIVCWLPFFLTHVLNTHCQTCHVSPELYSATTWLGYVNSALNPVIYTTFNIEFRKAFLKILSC
Description for D(2) dopamine receptor: Displacement of [3H]spiperone from human Dopamine receptor D2 expressed in CHO cells
Description for D(3) dopamine receptor: Displacement of [3H]spiperone from human Dopamine receptor D3 expressed in HEK293 cells
Description for D(4) dopamine receptor: Displacement of [3H]spiperone from human Dopamine receptor D4 expressed in HEK293 cells

Regarding `c1ccc(CN2CCC(n3nccc3-c3ccccc3)CC2)cc1`, the Ki stood at 0.81 µM at D(3) dopamine receptor, 0.015 µM on D(4) dopamine receptor and 0.51 µM at D(2) dopamine receptor.
As for `Cc1c(-c2ccccc2)cnn1C1CCN(Cc2cccc(Cl)c2)CC1`, the Ki on D(3) dopamine receptor worked out at 0.82 µM; at D(4) dopamine receptor, 0.0031 µM; on D(2) dopamine receptor it was 0.37 µM.
The like results for `Cc1c(-c2ccccc2)cnn1C1CCN(Cc2cccc(C#N)c2)CC1` were, in that order, 4.4 µM, 0.0052 µM and greater than 1.7 µM.
The like results for `c1ccc(CN2CCC(n3cc(-c4ccccc4)nn3)CC2)cc1` were, in that order, 1.3 µM, 0.032 µM and 0.46 µM.
The like results for `c1ccc(CN2CCC(n3nnc(-c4ccccc4)n3)CC2)cc1` were, in that order, 1.4 µM, 0.027 µM and 1.1 µM.
For `c1ccc(CN2CCC(n3nnnc3-c3ccccc3)CC2)cc1`, the Ki on D(3) dopamine receptor is greater than 4.4 µM; on D(4) dopamine receptor it was 1.2 µM; on D(2) dopamine receptor, greater than 1.8 µM.
The like results for `Cc1cc(-c2ccccc2)n(C2CCN(Cc3ccccc3)CC2)n1` were, in that order, 3 µM, 0.14 µM and 0.31 µM.
The corresponding values for `Cc1c(-c2ccccc2)cnn1C1CCN(Cc2ccccc2)CC1` are 0.45 µM, 0.0025 µM and 0.14 µM.
The like results for `Cc1nnn(C2CCN(Cc3ccccc3)CC2)c1-c1ccccc1` were, in that order, 2.2 µM, 0.018 µM and 1.2 µM.
Regarding `Cc1nn(C2CCN(Cc3cccc(C#N)c3)CC2)cc1-c1ccccc1`, the Ki on D(3) dopamine receptor worked out at 0.26 µM; at D(4) dopamine receptor, 0.0012 µM; on D(2) dopamine receptor it was 0.015 µM.
The corresponding values for `Cc1nn(C2CCN(Cc3ccccc3)CC2)cc1-c1ccccc1` are 0.028 µM, 0.00039 µM and 0.0061 µM.
For `Cc1c(-c2ccccc2)n[nH]c1C1CCN(Cc2ccccc2)CC1`, the Ki on D(3) dopamine receptor turned out to be 0.45 µM; on D(4) dopamine receptor, 0.0047 µM; at D(2) dopamine receptor, 0.09 µM.
With `Cc1c(-c2ccccc2)nnn1C1CCN(Cc2ccccc2)CC1`, the Ki at D(3) dopamine receptor turned out to be 2.5 µM; on D(4) dopamine receptor, 0.017 µM; at D(2) dopamine receptor, 1.6 µM.
The like results for `c1ccc(CN2CCC(n3cnc(-c4ccccc4)c3)CC2)cc1` were, in that order, 0.74 µM, 0.04 µM and 0.45 µM.
The corresponding values for `Cc1nn(C2CCN(Cc3cccc(Cl)c3)CC2)cc1-c1ccccc1` are 0.12 µM, 0.0031 µM and 0.015 µM.
